Usually IC50 stands for the concentration at which inhibition is half-maximal. The IC90 is the point of the concentration-response curve where the effect stands at 90%. A lower IC90 goes with an effect from little substance. By CC50 is commonly meant the concentration that lowers cell viability or growth by half. A low value points to greater toxicity to the cells.

This note sets out measurements from PubChem BioAssay AID1626 (SRMLSC, 2009).

The assay deals with M. tuberculosis H37Rv growth inhibition. The assay can be described thus: M. tuberculosis H37Rv growth inhibitors, H37Rv strain (AID 1626). The conditions noted are these: for IC90: measured here: IC90 against H37Rv; for CC50: measured here: Vero cell cytotoxicity.

Molecules are shown by their SMILES.

Consider `CCOc1ccc(NC(=O)CCN2CCN(c3ccccc3F)CC2)cc1`, for which the IC50 was 36.3 µM and the IC90 is above 100 µM.
In the case of `CSc1nc2nc(C)c(C/C=C/c3ccccc3)c(=O)n2[nH]1`, the IC50 is 11.4 µM and the IC90 was above 100 µM.
`O=C(CSc1nc2ccccc2o1)NCC(=O)c1ccccc1`: the IC50 is 8.36 µM and the IC90 turned out to be 25.9 µM.
In the case of `Cc1cccc(NC(=O)/C=C/c2ccc([N+](=O)[O-])s2)c1`, the IC50 is below 0.391 µM, the IC90 is below 0.391 µM and the CC50 amounted to 6.99 µM.
With `Cn1c(NCc2ccco2)nc2c1c(=O)n(Cc1ccc(Br)cc1)c(=O)n2C`, the IC50 was 99.3 µM, the IC90 was above 100 µM and the CC50 was above 40 µM.
For the compound `COc1ccc(C2CC(=O)N3CN(c4ccc(C)c(Cl)c4)CSC3=C2C#N)cc1OC` (centres undefined), the IC90 is above 100 µM.
As for `CCc1nc(N2CCCC(C)C2)c2oc3ccccc3c2n1` (centres undefined), the IC50 was 17 µM, the IC90 worked out at 23.8 µM and the CC50 was above 40 µM.
Regarding `COc1cccc(C(=O)/C=C/c2ccc(OCC#N)c(OC)c2)c1`, the IC50 is 19.8 µM, the IC90 is above 100 µM and the CC50 was found to be 12.4 µM.
Consider `Cc1sc2nc(-c3ccccn3)[nH]c(=O)c2c1-c1ccccc1`, for which the IC50 is 0.69 µM, the IC90 worked out at 1.69 µM and the CC50 stood at 15.2 µM.
For `Oc1cccc(-c2nc3ccc4ccccc4c3c3c2CCC3)c1`, the concentration for half-maximal inhibition (IC50) was 16.8 µM, the IC90 was found to be 27 µM and the CC50 was above 40 µM.
Regarding `Cc1[nH]n2c(=O)cc(-c3ccc([N+](=O)[O-])cc3)nc2c1-c1ccccc1`, the IC50 is 0.747 µM, the IC90 worked out at 1.43 µM and the CC50 came to 35.1 µM.
For `CCOC(=O)COc1cc2c3c(c(=O)oc2cc1C)CCCC3`, the IC50 was 1.59 µM and the IC90 is 10.4 µM.
The corresponding values for `O=C(CSCC(=O)NC1CC1)Nc1ccc2ccccc2c1` are 5.37 µM and above 100 µM.
Consider `Cc1cc(N2CCCCC2)nc2ccc(NC(=O)c3ccc(Br)o3)cc12`, for which the IC50 was 1.69 µM, the IC90 is 3.38 µM and the CC50 was above 40 µM.
In the case of `O=C(NCCCn1ccnc1)c1nn2c(C(F)(F)F)cc(-c3ccc(Br)cc3)nc2c1Cl`, the IC50 is 6.53 µM, the IC90 stood at 9.35 µM and the CC50 was above 40 µM.
For the compound `CCOc1ccc2nc(/N=C/c3c(C)[nH]n(-c4ccc(C)cc4)c3=O)sc2c1`, the half-inhibitory concentration (IC50) was 9.04 µM, the IC90 was above 100 µM and the CC50 was above 40 µM.
`O=C(COc1ccc2c(c1)OCO2)Nc1ccc2c(c1)oc1ccccc12` displayed an IC90 above 100 µM and a CC50 above 40 µM.
In the case of `CCOCC(=O)Nc1ccc(OCc2ccccc2)cc1`, the IC50 is 29.5 µM and the IC90 is above 100 µM.
The corresponding values for `COc1ccc(-c2noc(CCC(=O)Nc3ccc(C)c(C)c3)n2)cc1` are 22.6 µM and above 100 µM.
The corresponding values for `NS(=O)(=O)c1ccc(CCNC(=O)c2ccc3nc4ccc(Cl)cc4c(=O)n3c2)cc1` are 10.1 µM and 30.3 µM.
`Brc1ccc(CSc2ncn[nH]2)cc1`: the IC50 is 46.2 µM, the IC90 is above 100 µM and the CC50 is above 40 µM.
`C1=C(CCNc2ncnc3c2[nH]c2ccccc23)CCCC1`: the IC50 is 1.52 µM, the IC90 turned out to be 1.72 µM and the CC50 turned out to be 5.24 µM.
For `Cc1ccc(Oc2nc(CN3CCOCC3)nc3sc4c(c23)CCC(C)C4)cc1` (centres undefined), the IC50 is 17.1 µM, the IC90 turned out to be 22.4 µM and the CC50 was above 40 µM.
The like results for `COc1cc(C)c(/C=C/C(C)=C/C=C/C(C)=C/C(=O)O)c(C)c1C` were, in that order, 0.488 µM, above 100 µM and above 40 µM.
As to `COc1ccc(C2CC(=O)N3C(=C2C#N)SCC3(O)c2ccccc2)cc1` (centres undefined), the IC50 was 7 µM, the IC90 came to 12 µM and the CC50 is above 40 µM.
As for `CCOC(=O)COc1cc(OCC(=O)OCC)c2c(=O)cc(-c3ccccc3)oc2c1`, the IC50 is 1.37 µM and the IC90 came out at 3.74 µM.
On to `Cc1cccc(C(=O)Nc2nnc(-c3ccco3)o2)c1`, for which the IC50 was 0.695 µM, the IC90 stood at 3.56 µM and the CC50 came to 37.1 µM.
Take `COc1ccc(Br)cc1C(C[N+](=O)[O-])c1c(N)n(C)c(=O)n(C)c1=O` (centres undefined): the IC50 is 8.08 µM, the IC90 amounted to 12.5 µM and the CC50 stood at 9.3 µM.
As to `CCOC(=O)CSc1nc2c(c(-c3ccc(C)o3)c1C#N)CCCC2`, the IC50 was 2.36 µM and the IC90 came to 3.53 µM.
`c1ccc(-c2nc(NCCCn3ccnc3)c3ccccc3n2)cc1`: the IC50 was 5.87 µM, the IC90 was found to be 8.05 µM and the CC50 is above 40 µM.
As for `O=C(CSCC(=O)N1CCCCC1)Nc1nc(-c2ccc(Cl)s2)cs1`, the IC50 was 44 µM and the IC90 was above 100 µM.
As to `O=C(Nc1nnc(-c2cccs2)o1)c1cccc(Oc2ccccc2)c1`, the IC50 is below 0.195 µM, the IC90 stood at 2.67 µM and the CC50 worked out at 34 µM.
The corresponding values for `CCCNC1=C(N(C(C)=O)c2cccc(F)c2)C(=O)c2ccccc2C1=O` are 2.75 µM, 4.13 µM and 29.9 µM.
Regarding `CCOc1ccc(NC(=O)c2ccc(NC(=O)c3cn4c5c(c(N6CCN(C)CC6)c(F)cc5c3=O)OCC4C)cc2)cc1` (centres undefined), the IC50 is 2.83 µM, the IC90 came out at 3.17 µM and the CC50 is above 40 µM.
In the case of `Cc1cc(N)c2cc(NC(=O)/C=C/c3ccccc3Cl)ccc2n1`, the IC50 is 1.68 µM, the IC90 turned out to be 2.84 µM and the CC50 was 1.76 µM.
In the case of `CCOC(=O)CSc1nnc(-c2ccc([N+](=O)[O-])cc2)o1`, the IC50 was 0.316 µM and the IC90 was found to be 3.84 µM.
Turning to `COC(=O)c1c(NC(=O)c2ccccc2)sc(C(=O)c2ccccc2)c1C`, the IC50 is 9.53 µM, the IC90 worked out at 25.6 µM and the CC50 worked out at 25.3 µM.
With `O=C1c2cccc3c([N+](=O)[O-])ccc(c23)C(=O)N1CC1CCCO1` (centres undefined), the IC50 was 3.76 µM, the IC90 was determined as 12.5 µM and the CC50 is 18.1 µM.
For the compound `COc1cccc(/C=C2\Sc3ccc(C(=O)NCc4cccnc4)cc3N(C)C2=O)c1`, the IC50 was 2.83 µM, the IC90 was determined as 6.21 µM and the CC50 was above 40 µM.
The like results for `C=CCOC(=O)C(C#N)c1nc2ccccc2nc1N1CCN(Cc2ccc3c(c2)OCO3)CC1` (centres undefined) were, in that order, 5.44 µM, 6.17 µM and above 40 µM.
On to `CC1(C)Cc2c(C#N)c(N3CCN(C(=O)c4ccccc4)CC3)nc(Cc3ccccc3)c2CO1`, for which the IC50 is 10.5 µM, the IC90 is 18.7 µM and the CC50 is above 40 µM.
As for `O=C(COC(=O)c1sc2ccccc2c1Cl)NC1CCCCC1`, the IC50 was 12.7 µM, the IC90 is above 100 µM and the CC50 was above 40 µM.
Regarding `CC(C)OC(=O)CSc1nnc(-c2ccc(Cl)cc2Cl)o1`, the IC50 was below 0.195 µM and the IC90 was 9.2 µM.
In turn, `Nc1ccc(-c2cc(-c3cccc(N)c3)nc(-c3ccccc3)n2)cc1` displayed a CC50 above 40 µM.
Consider `CCC(=O)Nc1nnc(-c2ccc(OC)cc2)o1`, for which the IC50 is 6.08 µM and the IC90 was above 100 µM.
With `O=C1c2ccc3c4c(ccc(c24)C(=O)N1CCCCO)C(=O)N(CCCCO)C3=O`, the IC50 was 7.04 µM, the IC90 turned out to be 12.9 µM and the CC50 amounted to 5.2 µM.
Take `Cc1cc(C(=O)CCl)c(C)n1-c1cccc([N+](=O)[O-])c1`: the IC50 is 8.96 µM, the IC90 is 15.7 µM and the CC50 amounted to 20.3 µM.
`CC1CCN(C(=O)COC(=O)c2cc3ccccc3cc2O)CC1`: the IC50 is 0.634 µM and the IC90 was 2.51 µM.
For the compound `CCOC(=O)c1c(C)oc2ccc(OC(=O)c3cccs3)cc12`, the IC50 is 2.08 µM and the IC90 was determined as 13.6 µM.
For the compound `OC(CNCCC1C=Nc2ccccc21)Cn1c2ccc(Cl)cc2c2cc(Cl)ccc21` (centres undefined), the IC50 is 1.82 µM, the IC90 is 2.03 µM and the 50% cytotoxic concentration (CC50) was 5.96 µM.
Regarding `[O-][n+]1onc2c3cc(-c4ccccc4)nnc3ccc21`, the concentration for half-maximal inhibition (IC50) is below 0.195 µM and the IC90 amounted to 0.443 µM.
For `CCCCc1ccc(NC(=O)C2CCCO2)cc1` (centres undefined), the IC50 was 1.71 µM and the IC90 was above 100 µM.
As to `Cc1ccc(SC/C(O)=C(\C#N)c2nc3ccccc3n2C)cc1`, the CC50 was above 40 µM.
`Cc1ccc(Nc2nnc(SCC(=O)Nc3cccnc3Cl)s2)cc1C`: the IC50 was 1.63 µM and the IC90 was determined as 3.5 µM.
As for `CCCCCc1cc(=O)oc2c(C(CCN3CCCC(C)C3)c3ccc(OC)cc3)c(OC)cc(OC)c12` (centres undefined), the IC50 was 2.18 µM, the IC90 was determined as 3.26 µM and the CC50 amounted to 17.1 µM.
For the compound `O=C(/C=C/c1cccs1)Nc1cccc(NC(=O)/C=C/c2cccs2)n1`, the IC50 is 10.4 µM, the IC90 was above 100 µM and the CC50 came out at 28 µM.
Take `CC(C)(C)c1nn(-c2ccccc2)c2[nH]c(=O)c(CNCc3ccc4c(c3)OCO4)cc12`: the IC50 is 11.3 µM, the IC90 turned out to be 13.8 µM and the CC50 was above 40 µM.
Take `CCOc1ccc2nc(/N=C/c3nc(-c4ccccc4)oc3O)sc2c1`: the IC50 was 6.82 µM and the IC90 is above 100 µM.
With `Cc1c(C(=O)Oc2cccc3cccnc23)oc2ccccc12`, the IC50 is 3.04 µM, the IC90 was determined as 3.29 µM and the 50% cytotoxic concentration (CC50) was 34.6 µM.
As for `O=C(C[n+]1cc(-c2ccc(F)cc2)n2c1CCC2)Nc1nc(-c2ccc(F)cc2)cs1`, the IC50 is 10.5 µM and the IC90 was 41.1 µM.
The like results for `CCOC(=O)N1CCN(C(=O)CSc2nnc(COc3ccccc3)o2)CC1` were, in that order, 24.7 µM and 40 µM.
In the case of `CC(=O)Nc1ccc(Nc2cc(C(C)C)nc3c(-c4ccccc4)c(C)nn23)cc1`, the IC50 was 5.08 µM, the concentration for an effect of 90% (IC90) came to 9 µM and the CC50 was above 40 µM.
Turning to `O=C(COC(=O)c1ccc(-c2ccc([N+](=O)[O-])cc2)o1)NC(=O)NC12CC3CC(CC(C3)C1)C2`, the IC50 was 10.3 µM and the IC90 was above 100 µM.
